The values that follow come from patent US5173494A, “Specific inhibition of angiotensin-II binding to angiotensin-II receptor subtype-2” (E. I. du Pont de Nemours and Company, priority 1991, dated 1992).

Experiment [1] deals with renin-induced disruption of passive avoidance retention. The experiment is described as follows: Renin-disrupted passive avoidance retention. The experiment is classed as in vivo, male Sprague-Dawley rats. Particulars: rats; for prevention of renin-induced amnesia: co-administered with renin, IVT. As to the method: Experimentally naive male Sprague-Dawley rats […] (Charles River Breeding Laboratories, Kingston, N.Y.), weighing between 175 to 200 gm were used. The animals were housed four per cage (45.0 L×20.0 H×26.0 W cm) with free access to food and water. They were maintained on a 12 h light/dark cycle (lights on 0600 h) and at a room temperature of 22±1° C. with relative humidity of 50±10%.
The experimental sessions were conducted in a two-compartment passive avoidance box. One compartment, made of clear plastic with a perforated clear plastic floor, measured 21(L)×24.5(H)×17(W) cm and was illuminated with a 60 watt incandescent light bulb placed 36 cm above the floor. The other compartment, made of black plastic, measured 30.5(L)×20.3(H)×[…] with a floor made of 4 mm stainless steel rods spaced 1.2 cm apart. A grid floor shocker (Coulbourn Instruments) was connected to the steel rods and provided scrambled footshock. The two compartments were separated by a solenoid-operated slide door (Lafayette Instrument Co., Lafayette, Ind.). An electronic counter (Coulbourn Instruments), triggered by the opening or closing of the slide door, recorded acquisition and retention latencies (latencies were defined as the time it took an animal to enter the dark compartment).
Passive avoidance training began by placing the rat into the clear compartment of the two-compartment passive avoidance box. Following a 10 sec delay, the slide door to the dark compartment was raised. Once the rat moved completely into the dark compartment (all four paws on the shock grid floor) the slide door was lowered, and after a 10 sec delay, a 1.0 mA shock was applied to the grid floor for three sec. A second three sec shock was delivered after an additional 10 sec delay. The rats were immediately removed from the dark compartment and returned to their home cage. A retention test was given 24 h later. It proceeded in the same manner as the training session except that no shock was applied to the grid floor when the rats were provided access to the dark compartment for a maximum of 300 sec.
All drugs were administered IVT 60 minutes prior to acquisition training in a volume of 5 μl. Doses are expressed as the free base weight of each compound.

Experiment [2] has as its system mouse habituation (light to dark compartment latency). Particulars: cited from earlier work.
The subject of experiment [3] is uphill avoidance. To be noted: mice, acute, 30 mg/kg PO; cited from earlier work.
Experiment [4] deals with scopolamine-induced impairment of eight arm radial maze performance. To be noted: 3 mg/kg IP; cited from earlier work.
Experiment [5] concerns scopolamine-induced PA amnesia. To be noted: three times per day at 1, 3 and 10 mg/kg PO; cited from earlier work.
In experiment [6] the test system is ACh in the striatum and hypothalamus. To be noted: acute or repeated administration; cited from earlier work.
Experiment [7] relates to memory of previously learned tasks. Particulars: in vivo; cited from earlier work.
Experiment [8] relates to renin-induced avoidance disruption. Particulars: cited from earlier work.
Experiment [9] relates to renin-induced amnesia in a PA task. Description: PA task after IVT renin (own laboratory). The experiment is classed as in vivo.
The subject of experiment [10] is light/dark habituation performance. To be noted: subchronic treatment; cited from earlier work.
Experiment [11] has as its system retention of a passive avoidance (PA) response. To be noted: rats, dorsal neostriatum injection; cited from earlier work.
Experiment [12] has as its system potassium-stimulated release of ACh in entorhinal cortex. Particulars: in vitro, entorhinal cortex from rat brain; cited from earlier work.
Experiment [13] deals with AII in cerebrospinal fluid (CSF). Particulars: renin IVT; increased from 40; cited from earlier work.

As for `CCCc1nc(C(F)(F)F)c(C(=O)O)n1Cc1ccc(-c2ccccc2-c2nn[nH]n2)cc1` [Compound C, 2-n-propyl-1-[(2'-(lH-tetrazol-5-yl)biphenyl-4-yl)methyl]-4-trifluoromethylimidazole-5-carboxylic acid], in [1], the “prevention of renin-induced amnesia” value is “protected against amnesia”.
As to `CCCc1nc(C(F)(F)F)c(CO)n1Cc1ccc(-c2ccccc2-c2nnn[nH]2)cc1` [Compound D, 2-n-propyl-5-hydroxymethyl-1-[(2'-(1H-tetrazol-5-yl)biphenyl-4-yl)methyl]-4-trifluoromethylimidazole], in experiment [1], the “prevention of renin-induced amnesia” value is “protected against amnesia”.
As to `Cc1cc(Cn2cnc3c2CC(C(=O)O)N(C(=O)C(c2ccccc2)c2ccccc2)C3)ccc1N` (stereo not shown) [EXP655, 1-(4-amino-3-methylphenyl)methyl-5-diphenylacetyl-4,5,6,7-tetrahydro-1H-imidazo[4,5-c]pyridine-6-carboxylic acid], the “prevention of renin-induced amnesia” value in experiment [1] was “less effective in preventing the amnesia”. For the same molecule, in [2] (10.0 ng kg^-1 i.p. b.d., days 2 and 3, vs vehicle), the “initial latency to move from light to dark compartment” value is given as “decrease in the initial latency to move from the light to dark compartment”. The “scopolamine-induced impairment in mice treated with EXP655” value in [2] (EXP655 10.0 ng kg^-1 i.p., scopolamine 0.25 mg kg^-1 i.p., day 6) was “not detected”.
`CCOC(=O)C(CCc1ccccc1)NC(C)C(=O)N1CC2(CC3CCC2CC3)CC1C(=O)O` (stereo not shown) [Hoe 288]: in experiment [3], the “performance during retention testing, uphill avoidance” value is listed as “improved performance during retention testing”. For the same molecule, the “effect of muscarinic receptor blockade on performance” value in experiment [4] was “partially antagonized the effects of muscarinic receptor blockade on performance”. In addition, in experiment [5], the “effect on scopolamine-induced PA amnesia” value is reported as “partially reversed the amnesia”. For the same molecule, the “ACh in the striatum and hypothalamus” value in [6] was “significant decrease in ACh”.
For the molecule `NCCCC[C@H](OP(=O)(O)CCCCc1ccccc1)C(=O)N1CCC[C@H]1C(=O)O` [SQ 29852], in [7], the “effect on anticholinergic effect on performance” value was “ameliorate, at least in part, an anticholinergic effect on performance” and the “effect on memory of previously learned tasks” value was “protective effects on memory of previously learned tasks”.
With `C[C@H](CS)C(=O)N1CCC[C@H]1C(=O)O` [captopril], the “prevention of renin-induced avoidance disruption” value in experiment [8] (IVT, prior to the renin injection) was “prevented the renin-induced avoidance disruption”. For the same molecule, in experiment [9] (IVT administration), the “prevention of renin-induced amnesia in a PA task” value is listed as “prevented”. In addition, the “rate of acquisition of light/dark habituation performance” value in experiment [10] is reported as “increased the rate of acquisition”.
For `CN1[C@@H]2C[C@@H](OC(=O)[C@H](CO)c3ccccc3)C[C@H]1[C@@H]1O[C@@H]12` [scopolamine], in experiment [2] (scopolamine 0.25 mg kg^-1 i.p., day 6), the “performance following scopolamine in vehicle-treated mice (initial latency)” value is “increase in the initial latency”.
Consider `NC(=O)[C@@H]1CCCN1C(=O)[C@H](Cc1cnc[nH]1)NC(=O)[C@@H]1CCC(=O)N1` [thyrotropin releasing hormone], for which the “effect on retention of a PA response” value in experiment [11] is recorded as “had no effect”.
Take “AII: Angiotensin-II (AII), a circulating hormone, now thought to act as a neuropeptide in the central nervous system (DRVYIHPF; Angiotensin-2; UniProt P01019 25-32, looked up)”: the “effect on retention of a PA response” value in [11] is “disruption in retention of a PA response”. Further, in experiment [12], the “basal levels of ACh release” value was “without effects on basal levels” and the “potassium-stimulated release of ACh” value is listed as “reduced potassium-stimulated release of ACh”.
For “[1-sarcosine, 8-threonine]angiotensin-II”, in experiment [12], the “antagonism of AII effect on ACh release” value is reported as “antagonized”.
Consider lysine-8-vasopressin, for which, in experiment [11], the “effect on retention of a PA response” value is “had no effect”.

B1: renin: Renin (Sigma Chemicals), a stimulator of endogenous AII biosynthesis (protein, UniProt P00797 67-406, looked up)
Renin: LTLGNTTSSVILTNYMDTQYYGEIGIGTPPQTFKVVFDTGSSNVWVPSSKCSRLYTACVYHKLFDASDSSSYKHNGTELTLRYSTGTVSGFLSQDIITVGGITVTQMFGEVTEMPALPFMLAEFDGVVGMGFIEQAIGRVTPIFDNIISQGVLKEDVFSFYYNRDSENSQSLGGQIVLGGSDPQHYEGNFHYINLIKTGVWQIQMKGVSVGSSTLLCEDGCLALVDTGASYISGSTSSIEKLMEALGAKKRLFDYVVKCNEGPTLPDISFHLGGKEYTLTSADYVFQESYSSKKLCTLAIHAMDIPPPTGPTWALGATFIRKFYTEFDRRNNRIGFALAR
On to B1, for which the “effect on avoidance learning” value in [8] (renin into lateral ventricle (IVT)) is “disruption of avoidance learning”. Besides, the “AII in cerebrospinal fluid after renin” value in experiment [13] is “about 5000 fmol per mL”. Besides, the “memory deficit produced by renin” value in [1] (renin injected IVT) was “produces memory deficit in rats”. For the same molecule, the “amnesia in a PA task” value in [9] (renin administered IVT) is recorded as “produces a dose-related amnesia”.
